Earlier results as cited in patent US20220354783A1, “INJECTABLE PROLONGED-ACTION COMPOSITIONS FOR USE IN THE TREATMENT OF NAIL DISEASE AND/OR FOR PROMOTING NAIL GROWTH” (EDIX-O SARL, priority 2018, published 2022).

Tested on: nail diseases
Conditions: oral forms, 250 mg per day for 6 to 12 weeks

CN(C/C=C/C#CC(C)(C)C)Cc1cccc2ccccc12 [terbinafine]
total healing in clinical studies: 38%
